Experimental data: PubChem BioAssay (NCI)
Values joined by “and” are separate entries in the source; they are usually repeats but may differ in a detail not shown here. Equal values may be shown once.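 Growth conditions: 96-well plates. Treatment: test compound, 48 hours, 5 concentrations. Analysis: linear interpolation between bracketing concentrations; unreached endpoints set to highest concentration. Here, GI50 denotes the concentration required for 50% inhibition of growth. Definition used: TGI = concentration required for complete inhibition of growth.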

How the values were obtained:
Assay in all cases: inhibition of tumour cell growth, NCI panel, 48 h
MOLT-4 leukemia = tested on: MOLT-4 leukemia
A549 NSCLC = tested on: A549 NSCLC
NCI-H522 lung = tested on: NCI-H522 lung
SNB-75 CNS = tested on: SNB-75 CNS
UACC-62 melanoma = tested on: UACC-62 melanoma
CCRF-CEM leukemia = tested on: CCRF-CEM leukemia
COLO 205 colon = tested on: COLO 205 colon
HOP-62 NSCLC = tested on: HOP-62 NSCLC
UO-31 renal = tested on: UO-31 renal
SF-539 CNS = tested on: SF-539 CNS

| Structure (SMILES) | GI50 (MOLT-4 leukemia) | TGI (MOLT-4 leukemia) | GI50 (A549 NSCLC) | TGI (A549 NSCLC) | GI50 (NCI-H522 lung) | TGI (NCI-H522 lung) | GI50 (SNB-75 CNS) | TGI (SNB-75 CNS) | GI50 (UACC-62 melanoma) | TGI (UACC-62 melanoma) | GI50 (CCRF-CEM leukemia) | TGI (CCRF-CEM leukemia) | GI50 (COLO 205 colon) | TGI (COLO 205 colon) | GI50 (HOP-62 NSCLC) | TGI (HOP-62 NSCLC) | GI50 (UO-31 renal) | TGI (UO-31 renal) | GI50 (SF-539 CNS) | TGI (SF-539 CNS) |
| --- | --- | --- | --- | --- | --- | --- | --- | --- | --- | --- | --- | --- | --- | --- | --- | --- | --- | --- | --- | --- |
| COc1ccc2c(c1)C(=O)/C(=C/c1ccc(O)cc1)O2 | 2.38 µM | 6.06 µM | 25.7 µM | 67.5 µM | 1.86 µM | 3.75 µM | 8.82 µM | > 32.3 µM | 14.7 µM | 30.5 µM | 1.63 µM | 3.54 µM | 2.77 µM | 8.97 µM | 55.2 µM | > 100 µM | 4.73 µM | 9.39 µM | 21.6 µM | 56.8 µM |
| CC(=O)N(N=O)c1ccc(N(N=O)C(C)=O)cc1 | – | > 100 µM | – | > 100 µM | – | > 100 µM | – | > 100 µM | – | > 100 µM | – | > 100 µM | – | > 100 µM | – | > 100 µM | – | > 100 µM | – | > 100 µM |
| COc1cc(OCCCN2CCCC2)ccc1Nc1ncc(Cl)c(Nc2ccccc2P(C)(C)=O)n1 | 3.95 µM | 26 µM | 2.14 µM | 10.6 µM | 0.811 µM | 3.95 µM | 2.55 µM | 11.8 µM | 2.43 µM | 12.9 µM | 2.09 µM | 15.8 µM | 1.08 µM | 2.81 µM | 2.11 µM | 12.5 µM | 2.28 µM | 6.31 µM | 3.49 µM | 12.8 µM |
| COc1ccc(-c2c(NC(=O)Nc3ccc(Cl)c(C(F)(F)F)c3)cnn2-c2ccc(S(N)(=O)=O)cc2)cc1 | 2.01 µM | 5.97 µM | 3.46 µM | 13.6 µM | 2.98 µM | 12.3 µM | 2.3 µM | 13.3 µM | 2.07 µM | 4.47 µM | 3 µM | 11.3 µM | 2.31 µM | 5.31 µM | 4.07 µM | 16.1 µM | 3.39 µM | 15.1 µM | 3.06 µM | 9.9 µM |
| Cc1ccc(NC(=O)C(=O)C2C(=O)NC(=O)NC2=O)c(C)c1 | – | > 100 µM | – | > 100 µM | – | > 100 µM | – | > 100 µM | – | > 100 µM | – | > 100 µM | – | 26.8 µM | – | > 100 µM | – | > 100 µM | – | > 100 µM |
| CC(=O)OC1CC2C(C)(C)C(=O)C=C[C@]2(C)C2CCC3(C)C(c4ccoc4)C(=O)C4OC43[C@]12C (some centres undefined) | – | 50.8 µM | – | 46 µM | – | 26.9 µM | – | 75.3 µM | – | 34.3 µM | – | 58.3 µM | – | 34.2 µM | – | 57.9 µM | – | 37.6 µM | – | 40.2 µM |
| C=C[C@@H]1CCC/C=C/[C@@H]2C[C@H](O)C[C@H]2[C@H](O)/C=C/C(=O)O1 | 1.16 µM | > 31.4 µM | 0.469 µM | > 100 µM | 1.52 µM | 4.24 µM | 0.397 µM | > 100 µM | 0.545 µM | > 100 µM | 2.42 µM | > 100 µM | 0.224 µM | 0.441 µM | 1.33 µM | > 100 µM | 0.37 µM | > 100 µM | 0.65 µM | > 100 µM |
| COc1cc(/C=C/C(=O)c2ccccc2O)ccc1OCCCOc1cc2c(cc1OC)C(=O)N1CCC[C@H]1C=N2 | 0.017 µM | 0.0572 µM | 0.0315 µM | 1.24 µM | 0.0662 µM | 0.453 µM | 0.0468 µM | 0.222 µM | 0.0388 µM | 0.102 µM | 0.027 µM | 0.094 µM | 0.0348 µM | 0.144 µM | 0.0392 µM | 13.1 µM | 0.0812 µM | 0.771 µM | 0.0359 µM | 0.118 µM |
| COc1cccc(/C=C2\N=C(Cl)OC2=O)c1O | – | > 100 µM | – | > 100 µM | – | > 100 µM | – | > 93.3 µM | – | > 100 µM | – | > 100 µM | – | > 100 µM | – | > 100 µM | – | > 100 µM | – | > 100 µM |
| FC(F)(F)c1cccc(Oc2ccc(Nc3ncnc4ccc(OCCCN5CCOCC5)cc34)cc2Cl)c1 | 1.97 µM | 6.41 µM | 1.88 µM | 5.64 µM | 0.833 µM | 3.3 µM | 1.45 µM | 7.33 µM | 1.7 µM | 3.13 µM | 2.77 µM | 11.2 µM | 2 µM | 4.47 µM | 2.33 µM | 5.18 µM | 1.19 µM | 2.5 µM | 1.86 µM | 3.33 µM |
| O=C(Nc1ccc(Cl)cc1)c1cc(NCc2cc(O)ccc2O)ccc1O | 3.28 µM | 32.9 µM | 18.4 µM | 44 µM | 0.488 µM | 1.88 µM | 1.99 µM | 8.99 µM | 2.06 µM | 5.3 µM | 0.605 µM | 6.79 µM | 5.29 µM | 28.5 µM | 22 µM | 51.7 µM | 1.45 µM | 3.21 µM | 1.73 µM | 4.16 µM |
| CN1C(c2ccccc2)CC(=NO)CC1c1ccccc1 (centres undefined) | 23 µM | 62.2 µM and 69.3 µM | 88.1 µM | > 100 µM | 39.7 µM | > 100 µM | – | > 100 µM | – | > 100 µM | 29.2 µM | > 100 µM | 33.6 µM | 48 µM | – | > 100 µM | – | > 100 µM | – | > 100 µM |
| CCOc1ccc(Nc2ccnc3cc(Cl)ccc23)cc1 | > 100 µM | > 100 µM | > 100 µM | > 100 µM | 26.4 µM | 86.6 µM | 17 µM | 51.2 µM | > 100 µM | > 100 µM | > 100 µM | > 100 µM | > 100 µM | > 100 µM | > 100 µM | > 100 µM | > 100 µM | > 100 µM | 29.4 µM | > 100 µM |
| C=CCC1(CN(C)C)CC/C(=C\c2cc(OC)c(OC)c(OC)c2)C1=O (centres undefined) | – | 78.8 µM | – | > 100 µM | – | 29.4 µM | – | > 100 µM | – | 43.1 µM | – | 51.9 µM | – | 31.3 µM | – | > 100 µM | – | 77 µM | – | 35 µM |
| COc1ccc2c(c1)c1ccc3c(c1n2C)C(=O)C=CC3=O | – | 4.5 µM | – | 68.7 µM | – | 7.35 µM | – | 68.9 µM | – | 29.3 µM | – | 2.47 µM | – | 19.8 µM | – | 66.5 µM | – | 24.5 µM | – | 28 µM |
| CON1C(=O)C2(CCCCC2)C(=O)C12C=CC(C)CC2 (centres undefined) | – | > 100 µM | – | > 100 µM | – | > 100 µM | – | > 100 µM | – | > 100 µM | – | > 100 µM | – | > 100 µM | – | > 100 µM | – | > 100 µM | – | > 100 µM |
| CSc1nc2c(nc(N)n2C2OC(CO)C(O)C(O)C2O)c(=O)[nH]1 (centres undefined) | – | > 100 µM | – | > 100 µM | – | > 100 µM | – | > 100 µM | – | > 100 µM | – | > 100 µM | – | > 100 µM | – | > 100 µM | – | > 100 µM | – | > 100 µM |
| C[C@]12CC[C@@H]3c4ccc(O)cc4CC[C@H]3[C@@H]1CC(Cc1ccccc1)(Cc1ccccc1)C2=O | 9.11 µM | 32.8 µM | 18.5 µM | 48.4 µM | 16.6 µM | 36.3 µM | 16.7 µM | 34.5 µM | 15.1 µM | 29.3 µM | 14.3 µM | 36.4 µM | 13.4 µM | 31.9 µM | 17.7 µM | 32.9 µM | 15.8 µM | 31.3 µM | 18.6 µM | 36.8 µM |
| NCCCNCc1c2ccccc2c(CNCCCN)c2ccccc12 | – | 43.9 µM | – | 82.6 µM | – | 21 µM | – | 44 µM | – | > 100 µM | – | 46.6 µM | – | 22.8 µM | – | 62.6 µM | – | > 100 µM | – | 28.9 µM |
| COc1cccc(C2SC(C)C(=O)N2NC(=O)C(O)c2ccccc2)c1 (centres undefined) | > 100 µM | > 100 µM | > 100 µM | > 100 µM | > 100 µM | > 100 µM | > 100 µM | > 100 µM | > 100 µM | > 100 µM | > 100 µM | > 100 µM | > 100 µM | > 100 µM | > 100 µM | > 100 µM | > 100 µM | > 100 µM | > 100 µM | > 100 µM |
| CC(C)(C)c1cc[n+](C[n+]2ccc(C(C)(C)C)cc2)cc1 | – | > 100 µM | – | > 100 µM | – | > 100 µM | – | > 100 µM | – | > 100 µM | – | > 100 µM | – | > 100 µM | – | > 100 µM | – | > 100 µM | – | > 100 µM |
| NC(=O)c1ccc(I)c([N+](=O)[O-])c1 | > 71.2 µM | > 100 µM | > 94.5 µM | > 100 µM | 6.06 µM | 14.6 µM | > 100 µM | > 100 µM | 56.1 µM | > 100 µM | > 63.7 µM | > 100 µM | > 100 µM | > 100 µM | > 100 µM | > 100 µM | > 100 µM | > 100 µM | > 100 µM | > 100 µM |
| O=C(O)C(Cc1ccccc1)N=Cc1nc(-c2ccccc2)oc1O (centres undefined) | – | > 100 µM | – | > 100 µM | – | > 100 µM | – | > 100 µM | – | > 100 µM | – | > 100 µM | – | > 100 µM | – | > 100 µM | – | > 100 µM | – | > 100 µM |
| O=c1oc2ccc(F)cc2c(=O)n1-c1ccc(I)cc1F | 1.07 µM | 3.65 µM | 2.4 µM | > 94.7 µM | 0.322 µM | – | 0.368 µM | 10.4 µM | 0.293 µM | 1.1 µM | 1.83 µM | 52 µM | 2.67 µM | 8.82 µM | 0.916 µM | 14.9 µM | 0.241 µM | 1.46 µM | 0.42 µM | 5.17 µM |
